Read-outs that look alike come from different tables or passages of the source.
Columns and labels:
Type in all cases: cell-based
Androgen Receptor [1] = target: T1, Androgen Receptor (Homo sapiens, UniProt P10275+P40337, T878A); assay: Androgen Receptor ELISA assay (PathScan AR ELISA) in LNCaP cells: AR degradation, Dmax and DC50
T1 construct: Compounds have been evaluated in this assay in LNCaP and/or VCaP cells utilizing similar protocols; endogenous in cells; host or cells: LNCaP cells

Androgen Receptor [2] = target: T2, Androgen Receptor (Homo sapiens, UniProt P10275); assay: Androgen Receptor ELISA assay (PathScan AR ELISA) in VCaP cells: AR degradation, Dmax and DC50
T2 construct: endogenous in cells; host or cells: VCaP cells
T2 sequence (P10275 1-920): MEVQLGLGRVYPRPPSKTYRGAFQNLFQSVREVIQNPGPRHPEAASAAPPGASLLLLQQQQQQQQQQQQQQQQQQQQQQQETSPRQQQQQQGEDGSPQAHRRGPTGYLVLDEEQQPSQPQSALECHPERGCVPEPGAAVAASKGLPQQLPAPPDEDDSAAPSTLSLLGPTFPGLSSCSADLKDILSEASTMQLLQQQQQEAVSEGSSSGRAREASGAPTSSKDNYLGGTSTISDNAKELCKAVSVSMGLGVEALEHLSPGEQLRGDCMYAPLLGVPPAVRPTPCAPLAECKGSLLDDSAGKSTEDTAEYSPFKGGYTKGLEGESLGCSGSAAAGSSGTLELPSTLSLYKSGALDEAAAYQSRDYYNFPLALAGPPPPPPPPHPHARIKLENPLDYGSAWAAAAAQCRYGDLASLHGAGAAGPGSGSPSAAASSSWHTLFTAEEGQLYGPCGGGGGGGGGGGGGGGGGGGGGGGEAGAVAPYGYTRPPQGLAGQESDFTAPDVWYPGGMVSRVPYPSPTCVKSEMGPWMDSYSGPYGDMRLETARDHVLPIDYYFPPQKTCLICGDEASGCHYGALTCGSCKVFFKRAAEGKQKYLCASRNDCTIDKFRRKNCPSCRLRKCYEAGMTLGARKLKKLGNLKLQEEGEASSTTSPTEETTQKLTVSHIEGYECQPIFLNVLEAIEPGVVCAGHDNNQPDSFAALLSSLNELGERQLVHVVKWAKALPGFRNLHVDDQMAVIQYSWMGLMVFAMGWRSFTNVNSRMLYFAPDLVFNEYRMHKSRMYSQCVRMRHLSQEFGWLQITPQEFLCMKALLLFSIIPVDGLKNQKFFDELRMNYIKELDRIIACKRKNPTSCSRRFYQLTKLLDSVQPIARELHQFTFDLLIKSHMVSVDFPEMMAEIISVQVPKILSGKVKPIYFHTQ
Outline: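 VCaP cells in phenol red-free RPMI with 5% charcoal-stripped FBS were grown at least 3 days, then given compound as 7 half-log doses in 0.1% DMSO with 0.1 nM R1881 for 24 h. Lysates went into a sandwich AR ELISA with TMB read at 450 nm.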

VCaP cells = assay: VCaP cell proliferation assay (Cell Titer Glo), GI50; conditions: Homo sapiens; VCaP cells, 0.1 nM R1881; Table 37; read-out: GI50, Inhibition of VCaP Proliferation
Description: 2. VCaP Cell Proliferation Assay.
VCaP cells are plated 7,500/well 200 μL/well in VCaP assay medium [Phenol red free RPMI (Gibco Cat #11835-030); 5% Charcoal Stripped (Dextran treated) FBS (Omega Scientific, Cat #FB-04); Pen/Strep Life Technologies (Gibco Cat #: 10378-016); 0.1 nM R1881 (Sigma, Cat #R0908) is added upon the start of the assay, not during initial plating of the cells).
The assay was performed as follows: the cells are grown for a minimum of 3 days to deplete androgens; dosing of PROTACs and R1881 is performed as for AR ELISA; the baseline reading of Cell Titer Glo can be performed on day of dosing.
VCaP cells with 0.1 nM R1881 will double once in 4 days. Gently draw off 110 μL of media so as not to disturb the adherent cells; add 110 μL of CTG; incubate with slow shaking for 20 minutes; and read luminescence on a plate reader.

[3] = VCaP, highest percentage of Androgen Receptor degradation observed, VCaP cells (Table 32); read-out: VCaP Dmax (%)
[4] = VCaP cells; concentration that caused 50% Androgen Receptor degradation; read-out: VCaP DC50
[5] = VCaP, VCaP cells; highest percentage of Androgen Receptor degradation; read-out: VCaP Dmax (%)
[6] = read-out: VCaP DC50; VCaP cells; concentration that caused 50% Androgen Receptor degradation

T1 sequence (P10275 whole entry T878A): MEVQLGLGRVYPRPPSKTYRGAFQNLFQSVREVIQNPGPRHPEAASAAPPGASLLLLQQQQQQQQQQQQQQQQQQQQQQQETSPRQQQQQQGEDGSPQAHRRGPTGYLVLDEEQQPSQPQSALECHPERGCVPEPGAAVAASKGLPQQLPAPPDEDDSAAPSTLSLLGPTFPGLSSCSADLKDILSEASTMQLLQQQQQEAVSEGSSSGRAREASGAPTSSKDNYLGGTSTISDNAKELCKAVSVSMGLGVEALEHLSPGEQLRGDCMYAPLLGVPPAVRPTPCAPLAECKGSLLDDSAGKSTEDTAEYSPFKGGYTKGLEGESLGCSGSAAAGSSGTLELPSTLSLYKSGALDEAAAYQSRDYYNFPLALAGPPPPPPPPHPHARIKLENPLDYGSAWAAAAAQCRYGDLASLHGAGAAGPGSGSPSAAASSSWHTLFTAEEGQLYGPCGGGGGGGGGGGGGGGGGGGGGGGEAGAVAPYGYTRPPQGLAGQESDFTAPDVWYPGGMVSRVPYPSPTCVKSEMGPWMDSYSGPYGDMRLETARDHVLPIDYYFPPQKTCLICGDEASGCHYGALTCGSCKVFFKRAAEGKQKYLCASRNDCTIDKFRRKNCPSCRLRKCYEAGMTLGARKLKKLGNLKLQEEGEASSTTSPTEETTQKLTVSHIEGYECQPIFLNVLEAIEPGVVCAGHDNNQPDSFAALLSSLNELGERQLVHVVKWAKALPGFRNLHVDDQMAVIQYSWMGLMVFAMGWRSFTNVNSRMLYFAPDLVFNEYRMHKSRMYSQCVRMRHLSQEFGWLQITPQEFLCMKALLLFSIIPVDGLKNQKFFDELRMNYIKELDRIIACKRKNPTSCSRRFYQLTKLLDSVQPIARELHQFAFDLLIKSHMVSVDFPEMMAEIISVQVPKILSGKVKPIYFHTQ
T1 sequence (P40337 whole entry): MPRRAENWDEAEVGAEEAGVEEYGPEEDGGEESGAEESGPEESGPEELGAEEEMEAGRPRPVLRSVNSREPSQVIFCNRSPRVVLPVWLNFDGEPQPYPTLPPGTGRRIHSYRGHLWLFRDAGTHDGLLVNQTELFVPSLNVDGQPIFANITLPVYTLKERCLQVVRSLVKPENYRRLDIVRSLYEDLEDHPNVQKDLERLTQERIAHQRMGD
T1 sequence (Q15369 whole entry partner): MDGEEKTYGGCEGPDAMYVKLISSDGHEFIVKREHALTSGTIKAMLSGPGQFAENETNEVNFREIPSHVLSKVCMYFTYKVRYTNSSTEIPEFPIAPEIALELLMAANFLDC
T1 sequence (Q15370 whole entry partner): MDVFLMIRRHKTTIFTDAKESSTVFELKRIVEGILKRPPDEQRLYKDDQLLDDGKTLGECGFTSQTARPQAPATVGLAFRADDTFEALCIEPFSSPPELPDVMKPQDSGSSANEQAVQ

Compound | Dmax (Androgen Receptor [2]; VCaP, read-out: VCaP Dmax (%)) | GI50 (VCaP cells) | DC50 (Androgen Receptor [2]; [4]) | Dmax (Androgen Receptor [2]; [5]) | also measured
Cc1ncsc1-c1ccc(CNC(=O)[C@@H]2C[C@@H](O)CN2C(=O)[C@@H](NC(=O)COCCCCOc2ccc(-c3ccc(N4C(=S)N(c5ccc(C#N)c(C(F)(F)F)c5)C(=O)C4(C)C)cc3)cc2)C(C)(C)C)cc1 [Example 75, (2S,4R)-1-[(2S)-2-(2-{4-[4-(4-{3-[4-cyano-3-(trifluoromethyl)phenyl]-5,5-dimethyl-4-oxo-2-sulfanylideneimidazolidin-1-yl}phenyl)phenoxy]butoxy}acetamido)-3,3-dimethylbutanoyl]-4-hydroxy-N-{[4-(4-methyl-1,3-thiazol-5-yl)phenyl]methyl}pyrrolidine-2-carboxamide] | > 71% | 51 to 250 nM | – | – | DC50 (Androgen Receptor [1]; concentration that caused 50% Androgen Receptor degradation): < 50 nM; Dmax (Androgen Receptor [1]; highest percentage of Androgen Receptor degradation observed): > 71%; DC50 (Androgen Receptor [2]; read-out: VCaP DC50; concentration that caused 50% Androgen Receptor degradation, VCaP cells): < 50 nM
Cc1ncsc1-c1ccc(CNC(=O)[C@@H]2C[C@@H](O)CN2C(=O)[C@@H](NC(=O)COCCCCCNc2ccc(C(=O)N[C@H]3C(C)(C)[C@H](Oc4ccc(C#N)c(Cl)c4)C3(C)C)cc2)C(C)(C)C)cc1 [Example 172, (2S,4R)-1-[(2S)-3,3-dimethyl-2-[2-({5-[(4-{[trans-3-(3-chloro-4-cyanophenoxy)-2,2,4,4-tetramethylcyclobutyl]carbamoyl}phenyl)amino]pentyl}oxy)acetamido]butanoyl]-4-hydroxy-N-{[4-(4-methyl-1,3-thiazol-5-yl)phenyl]methyl}pyrrolidine-2-carboxamide] | – | ≤ 50 nM | – | – | Dmax (Androgen Receptor [2]; [3]): > 71%
Cc1ncsc1-c1ccc(CNC(=O)[C@@H]2C[C@@H](O)CN2C(=O)[C@@H](NC(=O)COCc2ccc(Oc3ccc(C(=O)N[C@H]4C(C)(C)[C@H](Oc5ccc(C#N)c(Cl)c5)C4(C)C)cc3)cc2)C(C)(C)C)cc1 [Example 183, (2S,4R)-1-[(2S)-3,3-dimethyl-2-(2-{[4-(4-{[trans-3-(3-chloro-4-cyanophenoxy)-2,2,4,4-tetramethylcyclobutyl]carbamoyl}phenoxy)phenyl]methoxy}acetamido)butanoyl]-4-hydroxy-N-{[4-(4-methyl-1,3-thiazol-5-yl)phenyl]methyl}pyrrolidine-2-carboxamide] | – | ≤ 50 nM | – | – | Dmax (Androgen Receptor [2]; [3]): > 71%
Cc1ncsc1-c1ccc([C@H](C)NC(=O)[C@@H]2C[C@@H](O)CN2C(=O)[C@@H](NC(=O)COCCCCOc2ccc(-c3ccc(N4C(=S)N(c5cnc(C#N)c(C(F)(F)F)c5)C(=O)C4(C)C)cc3)cc2)C(C)(C)C)cc1 [Example 194, (2S,4R)-1-[(2S)-2-(2-{4-[4-(4-{3-[6-cyano-5-(trifluoromethyl)pyridin-3-yl]-5,5-dimethyl-4-oxo-2-sulfanylideneimidazolidin-1-yl}phenyl)phenoxy]butoxy}acetamido)-3,3-dimethylbutanoyl]-4-hydroxy-N-[(1S)-1-[4-(4-methyl-1,3-thiazol-5-yl)phenyl]ethyl]pyrrolidine-2-carboxamide] | – | 51 to 250 nM | < 50 nM | > 71% | –
Cc1ncoc1-c1ccc([C@H](C)NC(=O)[C@@H]2C[C@@H](O)CN2C(=O)[C@@H](NC(=O)COCCCCOc2ccc(-c3ccc(N4C(=S)N(c5cnc(C#N)c(C(F)(F)F)c5)C(=O)C4(C)C)cc3)cc2)C(C)(C)C)cc1 [Example 195, (2S,4R)-1-[(2S)-2-(2-{4-[4-(4-{3-[6-cyano-5-(trifluoromethyl)pyridin-3-yl]-5,5-dimethyl-4-oxo-2-sulfanylideneimidazolidin-1-yl}phenyl)phenoxy]butoxy}acetamido)-3,3-dimethylbutanoyl]-4-hydroxy-N-[(1S)-1-[4-(4-methyl-1,3-oxazol-5-yl)phenyl]ethyl]pyrrolidine-2-carboxamide] | – | 51 to 250 nM | < 50 nM | > 71% | –
Cc1ncsc1-c1ccc(CNC(=O)[C@@H]2C[C@@H](O)CN2C(=O)[C@@H](NC(=O)COCCCCOc2ccc(-c3ccc(N4C(=S)N(c5cnc(C#N)c(C(F)(F)F)c5)C(=O)C4(C)C)c(F)c3)cc2)C(C)(C)C)cc1 [Example 197, (2S,4R)-1-[(2S)-2-(2-{4-[4-(4-{3-[6-cyano-5-(trifluoromethyl)pyridin-3-yl]-5,5-dimethyl-4-oxo-2-sulfanylideneimidazolidin-1-yl}-3-fluorophenyl)phenoxy]butoxy}acetamido)-3,3-dimethylbutanoyl]-4-hydroxy-N-{[4-(4-methyl-1,3-thiazol-5-yl)phenyl]methyl}pyrrolidine-2-carboxamide] | – | 51 to 250 nM | < 50 nM | > 71% | –
Cc1ncsc1-c1ccc(CNC(=O)[C@@H]2C[C@@H](O)CN2C(=O)[C@@H](NC(=O)COCC2CC3(C2)CC(COc2ccc(N4C(=S)N(c5ccc(C#N)c(C(F)(F)F)c5)C(=O)C4(C)C)cc2)C3)C(C)(C)C)cc1 (stereo partly drawn) [Example 201, (2S,4R)-1-[(2S)-2-[2-({6-[(4-{3-[4-cyano-3-(trifluoromethyl)phenyl]-5,5-dimethyl-4-oxo-2-sulfanylideneimidazolidin-1-yl}phenoxy)methyl]spiro[3.3]heptan-2-yl}methoxy)acetamido]-3,3-dimethylbutanoyl]-4-hydroxy-N-{[4-(4-methyl-1,3-thiazol-5-yl)phenyl]methyl} pyrrolidine-2-carboxamide] | > 71% | 51 to 250 nM | – | – | DC50 (Androgen Receptor [2]; [6]): < 50 nM
Cc1ncsc1-c1ccc([C@H](C)NC(=O)[C@@H]2C[C@@H](O)CN2C(=O)[C@@H](NC(=O)COCC2CC3(C2)CC(COc2ccc(N4C(=S)N(c5ccc(C#N)c(C(F)(F)F)c5)C(=O)C4(C)C)cc2)C3)C(C)(C)C)cc1 (stereo partly drawn) [Example 202, (2S,4R)-1-[(2S)-2-[2-({6-[(4-{3-[4-cyano-3-(trifluoromethyl)phenyl]-5,5-dimethyl-4-oxo-2-sulfanylideneimidazolidin-1-yl}phenoxy)methyl]spiro[3.3]heptan-2-yl}methoxy)acetamido]-3,3-dimethylbutanoyl]-4-hydroxy-N-[(1S)-1-[4-(4-methyl-1,3-thiazol-5-yl)phenyl]ethyl] pyrrolidine-2-carboxamide] | > 71% | 51 to 250 nM | – | – | DC50 (Androgen Receptor [2]; [6]): < 50 nM
Cc1ncsc1-c1ccc(CNC(=O)[C@@H]2C[C@@H](O)CN2C(=O)[C@@H](NC(=O)COCCNc2ccc(-c3ccc(C(=O)NC4C(C)(C)C(Oc5ccc(C#N)c(Cl)c5)C4(C)C)cc3)cc2)C(C)(C)C)cc1 (stereo partly drawn) [Example 204, (2S,4R)-1-[(2S)-2-[2-(2-{[4-(4-{[3-(3-chloro-4-cyanophenoxy)-2,2,4,4-tetramethylcyclobutyl]carbamoyl}phenyl)phenyl]amino}ethoxy)acetamido]-3,3-dimethylbutanoyl]-4-hydroxy-N-{[4-(4-methyl-1,3-thiazol-5-yl)phenyl]methyl}pyrrolidine-2-carboxamide] | – | ≤ 50 nM | < 50 nM | > 71% | –

From patent US11427548B2 (Arvinas Operations, Inc., priority 2015, dated 2022)
